In patent US11446287B2, “Compounds and methods for EP300 or CBP modulation and indications therefor” (Opna Immuno-Oncology SA, priority 2019, dated 2022):
pIC50: −log10 of the molar value.

Target: T1, Recombinant human BRD4 containing dual bromodomains (BRD4-BD12 (1-477)) (Homo sapiens, UniProt O60885)
T1 construct: Recombinant human BRD4 containing dual bromodomains (BRD4-BD12 (1-477)); made in house; host or cells: E. coli BL21-CodonPlus (DE3), modified pET vector
Experiment: BRD4 Alphascreen binding assay
Summary of the method: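 AlphaScreen proximity between Ni-chelate-bound BRD4-BD12 (1-477) and streptavidin-captured H4 K5/K8/K12/K16-acetyl peptide measured after 1 h room-temperature compound incubation and 30 min with 7.5 μg/ml beads. Buffer: 50 mM HEPES pH 7.5, 50 mM NaCl, 0.01% BSA, 0.01% Triton X-100; data plate-normalized and four-parameter fit for IC50.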

Compound | pIC50
Cc1noc(C)c1-c1cnc2c(-c3ccccc3)cn(-c3c(OCC(F)(F)F)cc(C(=O)O)cc3OCC(F)(F)F)c2c1 [P-0298, 4-(6-(3,5-dimethylisoxazol-4-yl)-3-phenyl-1H-pyrrolo[3,2-b]pyridin-1-yl)-3,5-bis(2,2,2-trifluoroethoxy)benzoic acid] | 5.10 to 6.00
Cc1noc(C)c1-c1cnc2c(-c3cccc(C(=O)O)c3F)c(C(F)(F)F)n([C@@H](C)c3ccccn3)c2c1 [P-0245, (S)-3-(6-(3,5-dimethylisoxazol-4-yl)-1-(1-(pyridin-2-yl)ethyl)-2-(trifluoromethyl)-1H-pyrrolo[3,2-b]pyridin-3-yl)-2-fluorobenzoic acid] | 3.00 to 5.10
CCOc1cc(C(=O)O)cc(OCC)c1-n1cc(C2CCC(F)(F)CC2)c2ncc(-c3c(C)noc3C)cc21 [P-0271, 4-(3-(4,4-difluorocyclohexyl)-6-(3,5-dimethylisoxazol-4-yl)-1H-pyrrolo[3,2-b]pyridin-1-yl)-3,5-diethoxybenzoic acid] | 3.00 to 5.10
Cc1cc(-c2c(C(F)(F)F)n([C@@H](C)c3ccccn3)c3cc(-c4c(C)noc4C)cnc23)ccc1C(=O)O [P-0243, (S)-4-(6-(3,5-dimethylisoxazol-4-yl)-1-(1-(pyridin-2-yl)ethyl)-2-(trifluoromethyl)-1H-pyrrolo[3,2-b]pyridin-3-yl)-2-methylbenzoic acid] | 5.10 to 6.00
COc1ccc(-n2cc(-c3ccc(C(=O)O)cc3OC(F)(F)F)c3cc(-c4c(C)noc4C)cnc32)c(F)c1 [P-0311, 4-(5-(3,5-dimethylisoxazol-4-yl)-1-(2-fluoro-4-methoxyphenyl)-1H-pyrrolo[2,3-b]pyridin-3-yl)-3-(trifluoromethoxy)benzoic acid] | 5.10 to 6.00
COc1cc(-c2c(C(F)(F)F)n([C@@H](C)c3ccccn3)c3cc(-c4c(C)noc4C)cnc23)ccc1C(=O)O [P-0244, (S)-4-(6-(3,5-dimethylisoxazol-4-yl)-1-(1-(pyridin-2-yl)ethyl)-2-(trifluoromethyl)-1H-pyrrolo[3,2-b]pyridin-3-yl)-2-methoxybenzoic acid] | 5.10 to 6.00
CCCn1nc(C(=O)O)c(NCC)c1-c1cn(-c2ccc(F)cc2F)c2ncc(-c3c(C)noc3C)cc12 [P-0304, 5-(1-(2,4-difluorophenyl)-5-(3,5-dimethylisoxazol-4-yl)-1H-pyrrolo[2,3-b]pyridin-3-yl)-4-(ethylamino)-1-propyl-1H-pyrazole-3-carboxylic acid] | 5.10 to 6.00
COc1cc(C(=O)O)cc(C)c1-c1cn(-c2ccccc2)c2ncc(-c3c(C)noc3C)cc12 [P-0255, 4-(5-(3,5-dimethylisoxazol-4-yl)-1-phenyl-1H-pyrrolo[2,3-b]pyridin-3-yl)-3-methoxy-5-methylbenzoic acid] | 5.10 to 6.00
Cc1noc(C)c1-c1cnc2c(c1)c(-c1ccc(C(=O)O)cc1OC(F)(F)F)cn2-c1ccccc1C#N [P-0309, 4-(1-(2-cyanophenyl)-5-(3,5-dimethylisoxazol-4-yl)-1H-pyrrolo[2,3-b]pyridin-3-yl)-3-(trifluoromethoxy)benzoic acid] | 3.00 to 5.10
CCOc1cc(C(=O)O)cc(OCC)c1-n1cc(-c2cnn(CCN(C)C)c2)c2ncc(-c3c(C)noc3C)cc21 [P-0262, 4-(3-(1-(2-(dimethylamino)ethyl)-1H-pyrazol-4-yl)-6-(3,5-dimethylisoxazol-4-yl)-1H-pyrrolo[3,2-b]pyridin-1-yl)-3,5-diethoxybenzoic acid] | 5.10 to 6.00
CCOc1cc(C(=O)O)ncc1-c1cn(-c2ccc(F)cc2F)c2ncc(-c3c(C)noc3C)cc12 [P-0295, 5-(1-(2,4-difluorophenyl)-5-(3,5-dimethylisoxazol-4-yl)-1H-pyrrolo[2,3-b]pyridin-3-yl)-4-ethoxypicolinic acid] | 5.10 to 6.00
Cc1noc(C)c1-c1cnc2c(c1)c(-c1ccc3c(c1)CNC3=O)cn2C(c1ccccn1)C1CCCC1 (centres unmarked) [P-0023, 5-(1-(cyclopentyl(pyridin-2-yl)methyl)-5-(3,5-dimethylisoxazol-4-yl)-1H-pyrrolo[2,3-b]pyridin-3-yl)isoindolin-1-one] | 5.10 to 6.00
CCCn1nc(C(=O)O)c(N)c1-c1cn(-c2ccc(F)cc2F)c2ncc(-c3c(C)noc3C)cc12 [P-0303, 4-amino-5-(1-(2,4-difluorophenyl)-5-(3,5-dimethylisoxazol-4-yl)-1H-pyrrolo[2,3-b]pyridin-3-yl)-1-propyl-1H-pyrazole-3-carboxylic acid] | 3.00 to 5.10
Cc1noc(C)c1-c1cnc2c(c1)c(-c1ccc(C(=O)O)cc1OCC(F)F)cn2-c1ccccc1 [P-0277, 3-(2,2-difluoroethoxy)-4-(5-(3,5-dimethylisoxazol-4-yl)-1-phenyl-1H-pyrrolo[2,3-b]pyridin-3-yl)benzoic acid] | 5.10 to 6.00
Cc1noc(C)c1-c1cnc2c(c1)c(-c1ccc(C(=O)O)cc1OCC(F)(F)F)cn2-c1ccccc1 [P-0278, 4-(5-(3,5-dimethylisoxazol-4-yl)-1-phenyl-1H-pyrrolo[2,3-b]pyridin-3-yl)-3-(2,2,2-trifluoroethoxy)benzoic acid] | 5.10 to 6.00
CCOc1cc(C(=O)O)cc(OCC)c1-n1cc(CC2CCC2)c2ncc(-n3c(C)nnc3C)cc21 [P-0270, 4-(3-(cyclobutylmethyl)-6-(3,5-dimethyl-4H-1,2,4-triazol-4-yl)-1H-pyrrolo[3,2-b]pyridin-1-yl)-3,5-diethoxybenzoic acid] | 3.00 to 5.10
Cc1noc(C)c1-c1cnc2c(c1)c(-c1ccc(C(=O)O)cc1OC(F)(F)F)cn2-c1cnc(N2CCC2)nc1 [P-0281, 4-(1-(2-(azetidin-1-yl)pyrimidin-5-yl)-5-(3,5-dimethylisoxazol-4-yl)-1H-pyrrolo[2,3-b]pyridin-3-yl)-3-(trifluoromethoxy)benzoic acid] | 5.10 to 6.00
Cc1noc(C)c1-c1cnc2c(c1)c(-c1ccc(C(=O)O)cc1OC(F)(F)F)cn2-c1ccc(C(C)(C)O)cc1 [P-0314, 4-(5-(3,5-dimethylisoxazol-4-yl)-1-(4-(2-hydroxypropan-2-yl)phenyl)-1H-pyrrolo[2,3-b]pyridin-3-yl)-3-(trifluoromethoxy)benzoic acid] | 6.00 to 10.00
C=C(C)c1ccccc1-n1cc(-c2ccc(C(=O)O)cc2OC(F)(F)F)c2cc(-c3c(C)noc3C)cnc21 [P-0312, 4-(5-(3,5-dimethylisoxazol-4-yl)-1-(2-(prop-1-en-2-yl)phenyl)-1H-pyrrolo[2,3-b]pyridin-3-yl)-3-(trifluoromethoxy)benzoic acid] | 3.00 to 5.10
CCOc1cc(C(=O)O)cc(OCC)c1-n1cc(-c2cn(C(C)C)nc2C)c2ncc(-c3c(C)noc3C)cc21 [P-0259, 4-(6-(3,5-dimethylisoxazol-4-yl)-3-(1-isopropyl-3-methyl-1H-pyrazol-4-yl)-1H-pyrrolo[3,2-b]pyridin-1-yl)-3,5-diethoxybenzoic acid] | 5.10 to 6.00
